Assay results published in patent publication US10000469B2, “Heat shock protein 70 (hsp-70) receptor ligands” (Duke University, priority 2014, dated 2018).
“Also recorded” adds a separate entry of the source.

Tests used:
[1] = target: T1, Hsp70i, Hsc70, Grp78, Grp75, Hsp90 (Homo sapiens, UniProt P0DMV8); assay: Elution of HEK 293T cell lysate proteins from the ATP resin (silver stain, Western blot); type: binding; settings: few non-specific eluted proteins
T1 construct: endogenous in cells; host or cells: HEK 293T
T1 sequence (P0DMV8 2-641): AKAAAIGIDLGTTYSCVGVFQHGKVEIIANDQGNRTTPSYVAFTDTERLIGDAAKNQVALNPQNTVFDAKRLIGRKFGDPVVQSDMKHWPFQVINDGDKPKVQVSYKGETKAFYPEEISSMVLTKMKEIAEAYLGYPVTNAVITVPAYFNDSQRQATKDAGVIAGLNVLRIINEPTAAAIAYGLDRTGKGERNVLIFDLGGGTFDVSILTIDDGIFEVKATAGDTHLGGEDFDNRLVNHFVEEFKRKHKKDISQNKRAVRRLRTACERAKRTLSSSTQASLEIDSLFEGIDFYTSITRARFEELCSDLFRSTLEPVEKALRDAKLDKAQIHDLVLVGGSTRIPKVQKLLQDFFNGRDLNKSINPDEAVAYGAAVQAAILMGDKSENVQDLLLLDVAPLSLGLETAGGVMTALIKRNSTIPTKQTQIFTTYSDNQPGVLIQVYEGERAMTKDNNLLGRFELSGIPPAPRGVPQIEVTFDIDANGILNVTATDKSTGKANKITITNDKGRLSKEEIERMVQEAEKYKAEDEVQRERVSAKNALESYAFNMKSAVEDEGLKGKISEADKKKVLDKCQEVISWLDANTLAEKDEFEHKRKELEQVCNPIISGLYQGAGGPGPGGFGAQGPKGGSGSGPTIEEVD
Procedure: (§1) FLECS Screen: A pEGFP-tagged Hsp70i was (plasmid 15215, Addgene, Cambridge, Mass.) used in the FLECS assay and was originally cloned according to [Zeng et al. (2004). Hsp70 dynamics in vivo: effect of heat shock and protein aggregation. Journal of cell science 117, 4991-5000]. ATP used in the assay was purchased from Sigma (St. Louis, Mo.) and a 200 mM stock was prepared with low salt buffer (150 mM NaCl, 25 mM Tris, pH 7.5, 60 mM MgCl2). The γ-phosphate ATP sepharose was synthesized as previously described and stored in low salt buffer [Haystead et al. (1993). Gamma-phosphate-linked ATP-sepharose for the affinity purification of protein kinases. Rapid purification to homogeneity of skeletal muscle mitogen-activated protein kinase kinase. European journal of biochemistry/FEBS 214, 459-467]. FuGENE 6 transfection reagent (Roche, Mannheim, Germany) was used for transfection of GFP-Hsp70i into HEK 293T cells, following the manufacturer protocol. The transfection ensued for 48 hours, upon which time the cells were harvested and lysed in cell lysis buffer (150 mM NaCl, 50 mM Tris, pH 7.5, 1% Triton X-100, 1 mM EDTA, 1 mM DTT, and 1 tablet Complete Mini protease inhibitor (Roche)). Cell lysates were stored at −80° C. until further use. Upon binding the resin lysates were washed 3× with high stringency wash buffer (1 M NaCl, 25 mM Tris, pH 7.5, 60 mM MgCl2, 1 mM DTT) and 3× with low stringency wash buffer (150 mM NaCl, 25 mM Tris, pH 7.5, 60 mM MgCl2, 1 mM DTT). Next the lysates were transferred to 0.2 μm PVDF filter 96-well plate (Corning, Corning, N.Y.) sitting on top of a black flat-bottomed 96-well catch plate (Corning). […]
(§2) HS-72 specifically targets Hsp70i over other members of the Hsp70 superfamily. […] To more thoroughly determine the specificity of HS-72 for Hsp70i, the HEK 293T eluates were also analyzed for other Hsp70 family members Hsc70, Grp78, and Grp75, as well as Hsp90 by Western blot. […] The linker on the resin was cleaved using sodium dithionite and the samples were subjected to SDS-PAGE and analyzed by Western blot, silver stain, and mass spectrometry. […]

[2] = tested on: Hsp70i, Hsc70, Grp78, Grp75, Hsp90; assay: as above; type: binding; settings: Western blot
Procedure: as §1, §2

BT474 = assay: Cell proliferation, BT474; type: cell-based
Procedure: (§3) Cell Proliferation: Cell proliferation was determined using a Hoechst stain (Sigma, St. Louis, Mo.) to quantify DNA. 5,000 cells of the designated cell line were plated in 96 well plates and treated the next day, designated as time point 0, with the indicated concentration of the specified compound maintained for the duration of the assay. At the indicated time points the media was removed and plated frozen at −80° C. Double distilled H2O was then added and the plates were incubated at 37° C. for 1 hour. After 1 hour the plates were frozen at −80° C. After freezing the plates were thawed and Hoechst stain was diluted 1:1000 in THE buffer (10 mM Tris, 2M NaCl, 1 mM Na2EDTA). The final fluorescence was measured on the Victor X2 plate reader at 355/460 nm, and cell proliferation was determined with the formula: % Cell Proliferation=100×(Sample fluorescence−background fluorescence)/(Control fluorescence−background fluorescence).

[3] = tested on: LnCaP prostate cancer cell lines; assay: Cell proliferation, LNCaP; type: cell-based
Procedure: as §3

MCF10A = assay: Cell proliferation, MCF10A; type: cell-based; settings: non tumorigenic MCF10A
Procedure: as §3

RWPE1 = assay: Cell proliferation, RWPE1; type: cell-based; settings: non tumorigenic RWPE1
Procedure: as §3

[4] = Blood workup after HS-72 treatment; type: in vivo; settings: wild-type mice, compared to control mice
Procedure: HS-72 in vivo MTD and blood workup: The 5 cohorts consisted of 3 mice each given HS-72 BiW and administered IP in DMSO at 1, 5, 10, 20 and 30 mpk using female FVBs aged to 10 weeks. Body Mass was measured weekly and the mice were monitored for signs of toxicity as per MP1U standard protocol. For blood analysis, 4 mice were injected IP with HS-72 on day 1 and 4, with blood drawn on day 5. 4 mice receiving no treatment were used as controls.

Hsp70i = Hsp70i (Homo sapiens, UniProt P0DMV8); assay: HS-72 affinity resin pull-down from HEK293T lysate, Hsp70i; type: binding; design: endogenous in cells; host or cells: HEK 293T; settings: free HS-72 incubated with lysate
Hsp70i, sequence (P0DMV8 whole entry): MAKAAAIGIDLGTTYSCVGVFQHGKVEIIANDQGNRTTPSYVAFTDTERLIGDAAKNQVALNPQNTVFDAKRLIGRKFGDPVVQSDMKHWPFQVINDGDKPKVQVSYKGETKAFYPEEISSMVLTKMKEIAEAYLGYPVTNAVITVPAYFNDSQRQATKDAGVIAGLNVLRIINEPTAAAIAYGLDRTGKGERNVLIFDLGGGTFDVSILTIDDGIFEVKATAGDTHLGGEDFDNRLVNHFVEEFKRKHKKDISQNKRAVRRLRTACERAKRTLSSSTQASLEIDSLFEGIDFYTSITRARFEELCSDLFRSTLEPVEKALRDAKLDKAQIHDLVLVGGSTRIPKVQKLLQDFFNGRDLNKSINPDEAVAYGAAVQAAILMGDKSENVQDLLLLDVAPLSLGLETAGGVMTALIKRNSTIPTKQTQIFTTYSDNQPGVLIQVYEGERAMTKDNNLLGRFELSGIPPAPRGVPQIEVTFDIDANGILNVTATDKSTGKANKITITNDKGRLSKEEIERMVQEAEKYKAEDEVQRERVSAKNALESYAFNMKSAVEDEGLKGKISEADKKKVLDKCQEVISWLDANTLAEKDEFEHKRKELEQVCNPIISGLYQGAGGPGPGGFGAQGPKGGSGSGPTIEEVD
Procedure: HS-72 specifically targets Hsp70i over other members of the Hsp70 superfamily. To test the selectivity of the HS-72 scaffold against the broader purinome, HEK 293T cell extracts or pig bladder tissue lysates were applied to the ATP resin and eluted with HS-72, as described for FLECS. The eluates were characterized by SDS-PAGE, silver stain, and MS analysis. […] To more thoroughly determine the specificity of HS-72 for Hsp70i, the HEK 293T eluates were also analyzed for other Hsp70 family members Hsc70, Grp78, and Grp75, as well as Hsp90 by Western blot. […] Next, an affinity resin was synthesized using the HS-72 scaffold, similar to a previously described affinity resin targeting Hsp90 [Hughes et al. (2012). […] Bioorganic & medicinal chemistry 20, 3298-3305]. HEK 293T cell lysate was applied to the resin and subjected to several washes. To confirm selectivity of the HS-72 affinity resin for Hsp70i, free HS-72 was incubated with lysate to inhibit Hsp70i binding to the affinity resin. The linker on the resin was cleaved using sodium dithionite and the samples were subjected to SDS-PAGE and analyzed by Western blot, silver stain, and mass spectrometry. […] These studies identified HS-72 as the first example of a small molecule that can selectively discriminate Hsp70i from other members of the Hsp70 superfamily.

CCCn1c(NC(=O)[C@H]2CCCN(c3cnccn3)C2)nc2ccccc21 [HS-72, (S)—N-(1-propyl-1H-benzo[d]imidazol-2-yl)-1-(pyrazin-2-yl)piperidine-3-carboxamide]
elution of Hsp70 from ATP resin [1]: elutes Hsp70
Hsp70 family members and Hsp90 eluted from the ATP resin [2]: only inducible Hsp70 was eluted
cell proliferation (BT474): inhibits proliferation
cell proliferation [3]: inhibits proliferation
cell proliferation (MCF10A): insensitive; also recorded: continue to grow at all concentrations
cell proliferation (RWPE1): insensitive; also recorded: only inhibited at the highest concentration tested
complete blood count [4]: no effect on complete blood count
kidney function [4]: no effect on kidney function
liver function [4]: no effect on liver function
competition of Hsp70i binding to the affinity resin by free compound (Hsp70i): able to block this interaction
